# Marks after values point to notes of the source that are not given here.
# Key:
# Assay type in all cases: physicochemical
# [1] = Approximate solubility at 25° C. (visual observation)
# Procedure: Max. volume of each solvent added was 1 mL. Approximate solubility was determined by visual observation.
# [2] = Stability of I-1 solution during concentration (pH, temperature; chiral purity); settings: for ee % before concentration: starting value before stirring; for ee % of the product after stirring: from 98.20%
# Procedure: To study the chiral stability of product I-1 during concentration, three batches I-1 from Prep-HPLC was tried under different conditions: 1) The ee % of the product changes from 98.20% to 78.95% after stirring over 18 h at 45-50° C. with pH 6-7. 2) The ee % of the product changes from 98.20% to 97.64% after stirring over 18 h at 20-25° C. with pH 6-7. 3) The ee % of the product changes from 98.20% to 98.15% after stirring over 18 h at 45-50° C. with pH 5-6.
# Two reactions at 0.5 g I-1 (after SFC preparation) were carried out for stability study. 1) Compound is stable after stirring over 20 h at 10-20° C. with pH 4. 2) The ee % of this compound change from 98.43% to 98.16% after stirring over 20 h at 40-50° C. with pH 4.
# [3] = Light impact on chiral purity
# Procedure: Four reactions were carried out to study the impact of light on chiral purity under neutral and basic condition.
# [4] = Stability of III-1 & I-1 solid; settings: after 55 days; initial 99.2%
# [5] = Investigation of factors impacting racemization
# Description: Therefore, the factors impacting racemization were investigated including pH, temperature, molecular sieve and experimental duration. […] It is worth noted that racemization can be accelerated when solvents are pretreated by molecular sieve, since the pH value is shifted to basic after pretreatment.
# During DSC test for I-1 Form A, different heating rates result in different thermal events. To investigate whether racemization occurs during heating, I-1 Form A was heated to different temperatures then obtained solids were tested by SFC.
# [6] = Grinding simulation experiments
# Procedure: About 50 mg of I-1 Form A was ground manually with a mortar and pestle for 1, 3 and 5 min. Form transformation and degree of crystallinity was evaluated by XRPD.
# About 50 mg of Form A was ground manually with a mortar and pestle for 1, 3 and 5 min. Form transformation and degree of crystallinity was evaluated by XRPD.
# [7] = after heating to 260° C. at 2° C./min by DSC
# [8] = after heating to 300° C. at 2° C./min by DSC
structure (smiles),measurement,setting,value
"N#Cc1c(-c2cc(NC(=O)c3cc(F)cc(C(F)(F)F)c3)c3c(c2)C(=O)N[C@H]3c2cc(F)ccc2Cl)ccc2ncnn12 [Compound I-1, (R)-N-(3-(2-chloro-5-fluorophenyl)-6-(5-cyano-[1,2,4]triazolo[1,5-a]pyridin-6-yl)-1-oxoisoindolin-4-yl)-3-fluoro-5-(trifluoromethyl)benzamide]",Solubility,"[1]; 1,4-dioxane, organic solvent or mixture, thermodynamic from solid, 1,4-Dioxane, polymorph screening batch",29 to 33 mg/mL
same,Solubility,"[1]; 2-MeTHF, organic solvent or mixture, thermodynamic from solid, polymorph screening batch",5 to 6 mg/mL
same,Solubility,"[1]; acetone, organic solvent or mixture, thermodynamic from solid, polymorph screening batch",43 to 52 mg/mL
same,Solubility,"[1]; acetone, organic solvent or mixture, thermodynamic from solid, starting material for salt screening",12 to 17 mg/mL
same,Solubility,"[1]; acetonitrile, organic solvent or mixture, thermodynamic from solid, polymorph screening batch",10 to 11 mg/mL
same,Solubility,"[1]; acetonitrile, organic solvent or mixture, thermodynamic from solid, starting material for salt screening",10 to 17 mg/mL
same,Solubility,"[1]; anisole, organic solvent or mixture, thermodynamic from solid, polymorph screening batch",< 5 mg/mL
same,Solubility,"[1]; benzyl alcohol, organic solvent or mixture, thermodynamic from solid, polymorph screening batch",16 to 18 mg/mL
same,Solubility,"[1]; chloroform, organic solvent or mixture, thermodynamic from solid, polymorph screening batch",< 5 mg/mL
same,Solubility,"[1]; dichloromethane, organic solvent or mixture, thermodynamic from solid, polymorph screening batch",< 5 mg/mL
same,Solubility,"[1]; dichloromethane, organic solvent or mixture, thermodynamic from solid, starting material for salt screening",< 5 mg/mL
same,Solubility,"[1]; ethanol, organic solvent or mixture, thermodynamic from solid, polymorph screening batch",6 to 7 mg/mL
same,Solubility,"[1]; ethanol, organic solvent or mixture, thermodynamic from solid, starting material for salt screening",< 5 mg/mL
same,Solubility,"[1]; ethyl acetate, organic solvent or mixture, thermodynamic from solid, polymorph screening batch",6 to 7 mg/mL
same,Solubility,"[1]; heptane, organic solvent or mixture, thermodynamic from solid, polymorph screening batch",< 5 mg/mL
same,Solubility,"[1]; isopropanol, organic solvent or mixture, thermodynamic from solid, polymorph screening batch",< 5 mg/mL
same,Solubility,"[1]; isopropanol, organic solvent or mixture, thermodynamic from solid, starting material for salt screening",< 5 mg/mL
same,Solubility,"[1]; isopropyl acetate, organic solvent or mixture, thermodynamic from solid, polymorph screening batch",< 5 mg/mL
same,Solubility,"[1]; isopropyl acetate, organic solvent or mixture, thermodynamic from solid, starting material for salt screening",< 5 mg/mL
same,Solubility,"[1]; methanol, organic solvent or mixture, thermodynamic from solid, polymorph screening batch",15 to 17 mg/mL
same,Solubility,"[1]; methanol, organic solvent or mixture, thermodynamic from solid, starting material for salt screening",12 to 17 mg/mL
same,Solubility,"[1]; methyl ethyl ketone, organic solvent or mixture, thermodynamic from solid, polymorph screening batch",26 to 28 mg/mL
same,Solubility,"[1]; methyl ethyl ketone, organic solvent or mixture, thermodynamic from solid, starting material for salt screening",12 to 17 mg/mL
same,Solubility,"[1]; nitromethane, organic solvent or mixture, thermodynamic from solid, Nitromethane (NM), polymorph screening batch",7 to 8 mg/mL
same,Solubility,"[1]; t-butyl methyl ether, organic solvent or mixture, thermodynamic from solid, polymorph screening batch",< 5 mg/mL
same,Solubility,"[1]; tetrahydrofuran, organic solvent or mixture, thermodynamic from solid, polymorph screening batch",52 to 65 mg/mL
same,Solubility,"[1]; tetrahydrofuran, organic solvent or mixture, thermodynamic from solid, starting material for salt screening",33 to 64 mg/mL
same,Solubility,"[1]; toluene, organic solvent or mixture, thermodynamic from solid, polymorph screening batch",< 5 mg/mL
same,Solubility,"[1]; trifluoroethanol, organic solvent or mixture, thermodynamic from solid, starting material for salt screening",12 to 17 mg/mL
same,Solubility,"[1]; water, thermodynamic from solid, polymorph screening batch",< 5 mg/mL
same,Solubility,"[1]; water, thermodynamic from solid, starting material for salt screening",< 5 mg/mL
same,Purity,"[2]; 10-20° C. MeOH, 1N HCl, pH 4, stir for 20 h",99.54%
same,ee %,"[2]; 10-20° C. MeOH, 1N HCl, pH 4, stir for 20 h, start ee 98.43%",98.39%
same,Purity,"[2]; 10-20° C. MeOH, 1N HCl, pH 4, stir for 68 h",99.53%
same,ee %,"[2]; 10-20° C. MeOH, 1N HCl, pH 4, stir for 68 h, start ee 98.43%",98.27%
same,ee %,"[2]; 20-25° C. MeOH, pH 6-7, stir for 18 h, start ee 98.20%",97.64%
same,Purity,"[2]; 40-50° C. MeOH, 1N HCl, pH 4, stir for 4 h",99.51%
same,Purity,"[2]; 40-50° C. MeOH, 1N HCl, pH 4, stir for 20 h",99.37%
same,ee %,"[2]; 40-50° C. MeOH, 1N HCl, pH 4, stir for 20 h, start ee 98.43%",98.16%
same,ee %,"[2]; 40-50° C. MeOH, 1N HCl, pH 4, stir for 68 h, start ee 98.43%",97.92%
same,purity and chiral purity change in solution,[2]; 40˜50° C. stirring for 68 h,slight degrade
same,ee %,"[2]; 45-50° C. MeOH, 1N HCl, pH 5-6, stir for 18 h, start ee 98.20%",98.15%
same,ee %,"[2]; 45-50° C. MeOH, pH 6-7, stir for 18 h, start ee 98.20%",78.95%
same,ee % before concentration,[2]; I-1 after SFC preparation,ee % 98.43%
same,ee % before concentration,[2]; I-1 from Prep-HPLC,ee % 98.20%
same,stability of compound I-1 solution,[2]; dependence on pH,stable when pH at 4˜5
same,ee % of the product after stirring,[2]; over 18 h at 20-25° C. with pH 6-7,97.64%
same,ee % of the product after stirring,[2]; over 18 h at 45-50° C. with pH 5-6,98.15%
same,ee % of the product after stirring,[2]; over 18 h at 45-50° C. with pH 6-7,78.95%
same,stability after stirring,[2]; over 20 h at 10-20° C. with pH 4,stable
same,ee % after stirring,"[2]; over 20 h at 40-50° C. with pH 4, from 98.43%",98.16%
same,ee %,"[3]; Avoid light, basic (KOAc), 1 h",97.91%
same,ee %,"[3]; Avoid light, basic (KOAc), 6 h",94.79%
same,ee %,"[3]; Avoid light, basic (KOAc), 24 h",80.92%
same,ee %,"[3]; Avoid light, basic (KOAc), 96 h",43.30%
same,ee %,"[3]; Avoid light, neutral, 0 h",98.96%
same,ee %,"[3]; Avoid light, neutral, 6 h",98.94%
same,ee %,"[3]; Avoid light, neutral, 24 h",98.96%
same,ee %,"[3]; Avoid light, neutral, 96 h",98.92%
same,ee %,"[3]; Under light, basic (KOAc), 6 h",94.35%
same,ee %,"[3]; Under light, basic (KOAc), 24 h",76.17%
same,ee %,"[3]; Under light, basic (KOAc), 96 h",30.84%
same,ee %,"[3]; Under light, neutral, 6 h",98.87%
same,ee %,"[3]; Under light, neutral, 24 h",97.15%
same,ee %,"[3]; Under light, neutral, 96 h",81.68%
same,ee % of product after stirring for 96 h,"[3]; base system, avoid-light condition",43.30%
same,ee % of product after stirring for 96 h,"[3]; base system, under-light condition",30.84%
same,ee % of product after stirring for 96 h,"[3]; neutral system, avoid-light condition",almost unchanged
same,ee % of product after stirring for 96 h,"[3]; neutral system, under-light condition",81.68%
same,purity of solid after storage,[4],99.2%
same,ee %(SFC),"[5]; Batch #1 as received, SFC after preparation for 12 h",ee % (SFC): 97.7%#;
same,ee %(SFC),"[5]; Batch #1 as received, SFC immediately after preparation",ee % (SFC): 100.0%*
same,XRPD,[5]; [7],XRPD: low crystallinity
same,ee %(SFC),[5]; [7],ee % (SFC): 88.1%*
same,ee %(SFC),[5]; after heating to 270° C. at 2° C./min by DSC,ee % (SFC): 10.9%*
same,XRPD,[5]; [8],XRPD: amorphous form
same,ee %(SFC),[5]; [8],ee % (SFC): 2.2%*
same,"racemization during heating (DSC, solids tested by SFC)",[5]; certain high temperatures,racemization indeed occurred
same,racemization in different solvents,"[5]; sped up by basic pH, high temperature, longer time, exposure to light",racemization easily occurs
same,XRPD peak intensity after dry grinding,[6],slightly decreased
same,XRPD,[6]; Dry grinding for 1 min,"No form and crystallinity change,"
same,form change on grinding (XRPD),"[6]; mortar and pestle 1, 3 and 5 min",no form change

# From patent US20260125374A1, “PI3K-ALPHA INHIBITORS AND METHODS OF MAKING AND USING THE SAME” (Relay Therapeutics, Inc., priority 2021, published 2026)
